Tests used:
[1] = tested on: Agrobacterium; details: carbenicillin, cefotaxime, ticarcillin for Brassica, Solanum, Rubus respectively; cited from earlier work
[2] = tested on: A. tumefaciens, supervirulent strain EHA101 (pEHA101/pGT100); details: 100 μg/ml, singly or in combination, 52 days in regeneration and elongation media; cited from earlier work
[3] = tested on: Agrobacterium tumefaciens; assay: Growth curve of Agrobacterium tumefaciens in liquid Yeast Mannitol Broth, optical density at 600 nm; type: cell-based; details: different concentrations of D-catechin of Acacia species
Experimental: The growth of bacteria is measured spectrophotometrically. The variation of growth is measured for up to 48 hours at an interval of 6 hours each.
Two strains of Agrobacterium tumefaciens viz. EHA105 (mild) and GV2260 (virulent) harbouring the antibiotic resistance genes for kanamycin or hygromycin and the reporter gus gene were inoculated from mother cultures of respective strains into 10–30 ml liquid modified Yeast Mannitol Broth with kanamycin or hygromycin. The cultures were incubated for 12–16 hr at 25–30° C. and 150–200 rpm in dark and harvested at 0.6–0.8 optical density at 600 nm for 1×10^9 cells/ml during log phase of bacterial growth. […] Measurement of optical density at 600 nm at regular 6 hr intervals for 0–48 hr and the mean of three readings were plotted for development of the growth curve.
Crude mixture of catechins as well as caffeine at concentrations of 2–600 μg/ml were added to fresh cultures of Agrobacterium tumefaciens and maintained at 25–30° C. in dark at 150–200 rpm for 48 hr. The optical density was again measured at regular interval of 6 hr each for 0–48 hr for the plotting of the mean of the three readings in a linear graph in order to determine the effect of the crude mixture of catechins as well as caffeine at concentrations of 2–600 μg/ml on fresh cultures of Agrobacterium tumefaciens.

[4] = tested on: guar tissues; details: cited from earlier work
[5] = tested on: Sitka spruce somatic embryos; details: cited from earlier work
[6] = tested on: cultured tissues of Vitis; details: cited from earlier work

Row | SMILES | elimination of residual Agrobacterium [1] | elimination of A. tumefaciens from the explants [2] | phytotoxicity to guar explants [4] | other results
1 | CC1(C)S[C@@H]2[C@H](NC(=O)[C@H](C(=O)O)c3ccsc3)C(=O)N2[C@H]1C(=O)O [ticaracillin, ticarcillin] | none of the antibiotics tested succeeded in eliminating Agrobacterium |  |  | 
2 | CO[C@@]1(NC(=O)Cc2cccs2)C(=O)N2C(C(=O)O)=C(COC(N)=O)CS[C@@H]21 [cefoxitin] |  | did not eliminate |  | 
3 | Oc1cc(O)c2c(c1)OC(c1ccc(O)c(O)c1)C(O)C2 [D-catechin] |  |  |  | growth of Agrobacterium tumefaciens [3]: promote and not inhibit the growth
4 | CO/N=C(\C(=O)N[C@@H]1C(=O)N2C(C(=O)O)=C(COC(C)=O)CS[C@H]12)c1csc(N)n1 [cefotaxime] | none of the antibiotics tested succeeded in eliminating Agrobacterium | did not eliminate | phytotoxic | effect on overall tissue growth [5]: no effect
5 | CC1(C)S[C@@H]2[C@H](NC(=O)C(C(=O)O)c3ccccc3)C(=O)N2[C@H]1C(=O)O (some centres unmarked) [carbenicillin] | none of the antibiotics tested succeeded in eliminating Agrobacterium | did not eliminate | phytotoxic | effect on plant regeneration [6]: inhibitory effects on plant regeneration; development of mature somatic embryos [5]: prevented the development of mature somatic embryos; reduction of early stage embryos [5]: > 90%; reduction of tissue growth [5]: 50%
